The values that follow come from patent publication US6432954B1, “Pharmaceutical compositions and methods for use” (Targacept, Inc., priority 2000, dated 2002).

What all share (type): physicochemical
Series [1] is described as follows: Water absorption (hygroscopicity) of the salt. An excerpt: (§1) The salts of the present invention which are derived from aryl substituted amines and 2,3-diacyl-tartaric acids have a number of advantages over other salts derived from aryl substituted amines and other acids, such as fumaric acid or galactaric acid. […] As such, the di-p-toluoyl-D-tartrate salt of (2S)-(4E)-N-methyl-5-[3-(5-isopropoxypyridin)yl)]-4-penten-2-amine is a free-flowing crystalline powder; and such a property is a definite advantage for pharmaceutical formulation development and pharmaceutical manufacturing. If necessary, this salt can be milled to an acceptable particle size range for pharmaceutical processing. […] The salt is compatible with a wide range of excipients that might be chosen for the manufacture of solid oral dosage forms. This is especially so for those exicipients, such polysaccharide derivatives, that are pharmaceutically defined hydrates and those with only loosely bound surface water. As an illustration, salts derived from certain aryl substituted amines, such as E-metanicotine and fumaric acid are prone to the formation of impurities within the salt. For example, impurities arise from the Michael addition reaction of the secondary amine in E-metanicotine to the olefin in fumaric acid. These impurities lower the chemical purity of the salt and adversely affect the chemical integrity of the salt upon long-term storage. […]

A short description of series [2]: Water solubility of the salt.
Text: as §1

Series [3] in a line: Physical and chemical stability of the salt.
Text: as §1

In the case of `CN[C@@H](C)C/C=C/c1cncc(OC(C)C)c1` [Sample No. 2, (2S)-(4E)-N-methyl-5-[3-(5-isopropoxypyridin)yl]-4-penten-2-amine hemi-(di-p-toluoyl-D-tartrate)], in series [1] (room temperature and 90% relative humidity), the “amount of water absorbed” value was 3.2%. Further, the water solubility result in series [2] is reported as “water soluble”. For the same compound, the stability result in series [3] was “physically and chemically stable”.

With `CN[C@@H](C)C/C=C/c1cncc(OC(C)C)c1.CN[C@@H](C)C/C=C/c1cncc(OC(C)C)c1.O=C(O)[C@@H](O)[C@H](O)[C@H](O)[C@@H](O)C(=O)O` [hemigalactarate of (2S)-(4E)-N-methyl-5-[3-(5-isopropoxypyridin)yl)]-4-penten-2-amine, reference compound], the “amount of water absorbed” value in series [1] (40° C. and 70% relative humidity) was determined as 11.8%.
